# Measurements taken from patent publication US12653827B2, “Methods of treating indolent systemic mastocytosis” (Telios Pharma Inc., priority 2024, dated 2026).
# Legend:
# basophils [1] = experiment: Comparison of BTK inhibitors by BAT (CD63 and CD203c); type: cell-based, human; settings: concentration of 1 μM; 2 hours; blood from a healthy donor
# Protocol: (§1) The BAT assay using the Flow Cast Basophil Activation Kit (Buhlmann Diagnostics; Catalog #B-CCR-STCON) was then conducted following manufacturer instructions by (1) stimulating the blood with anti-FcεR stimulation control in stimulation buffer with IL-3 and staining cells for CCR3 and CD63 for 15 minutes at 37° C., (2) lysing red blood cells and fixing cells with Lysing Reagent at room temperature for 10 minutes, (3) washing cells with Wash Buffer, and (4) acquiring data on a flow cytometer. Activated basophils were defined as CCR3+, low side scatter and CD63+. Percent of activated basophils was calculated as number of activated basophils over the total number of basophils. A four-parameter logistic regression was applied to determine the EC50 and EC90.
# Blood samples were gently rocked at room temperature for 2 hours. […] Activated basophils were also defined as CCR3+, low side scatter and CD203c+.
# basophils [2] = experiment: BAT (CD63) on blood of dosed ISM patients; type: in vivo, human
# Protocol: as §1, with “The BAT was conducted as set forth in Santos (2021) Allergy, 76:2420-2432. Blood from six healthy donors was drawn and Compound 128 was added at various concentrations (10 μM, 3.16 μM, 1 μM, 0.3 μM, 0.1 μM, 0.03 μM, or 0 μM). Blood samples were gently rocked at room temperature for 2 hours, 24 hours, or 48 hours. The” for “The”, “EC90. […]” for “EC90.”
# The BAT assay measuring CD63 used the Flow Cast Basophil Activation Kit method and percent activated basophils were calculated as described in Example 1. Percent inhibition of CD63 activation was calculated as (100−(Sample condition−Unstimulated DMSO control)/(Stimulated DMSO control−Unstimulated DMSO control)×100).
# IL-4 = experiment: Anti-IgE induced IL-4 production from basophils in whole blood; type: cell-based, human; settings: whole blood from a healthy donor, treated two hours, anti-IgE six hours
# Protocol: Human mast cells lines, ROSA with wildtype KIT and ROSA […] with D816V KIT mutation (ISM-like cells), were licensed from CRNS Innovation and cultured with or without stem cell factor (100 ng/mL), respectively (FIG. 12A). ROSA cells were stimulated with IL-4 (20 ng/mL; R&D Systems) for 18 hours, stained for FcεRIα(Becton Dickinson) for 30 minutes on ice, washed twice with FACS buffer and data was acquired on a flow cytometer. The median fluorescence intensity of FcεRIα was measured. […] Whole blood from a healthy donor was treated with Compound 128 for two hours and the basophils were stimulated with anti-IgE (1 μg/mL; Beckman Coulter) for six hours (FIG. 12B). Plasma was collected and IL-4 levels were measured using the BD CBA human soluble protein master buffer kit and BD CBA human soluble protein flex set for IL-4 (Becton Dickinson). A four-parameter logistic regression analysis was performed on the cytokine levels to determine the EC50 and EC90. […] Therefore, Compound 128 may indirectly effect FcεRI expression by the reduction of IL-4 levels.
# [3] = test system: IL-8, MCP-1, GM-CSF and IL-13; experiment: MRGPRX2-mediated cytokine production in ISM-like mast cells; type: cell-based, human
# Protocol: Human mast cells were differentiated from bone marrow CD34+ cells from four healthy donors and were cultured in the presence of SCF (100 ng/mL) to mimic mast cells in ISM and treated with Compound 128 for two hours prior to stimulation. Mas-related G protein-coupled receptor (MRGPRX2) agonists, Compound 48/80 (C48/80; a product of N-methyl-p-methoxyphenethylamine with formaldehyde) or Substance P (SP) were used to activate the MRGPRX2 pathway. For pBTK test, cells were stimulated with C48/80 (10 μg/mL) for ten minutes at 37° C. and cells were stained. The median fluorescence intensity of phosphorylated BTK was measured. The fold change over unstimulated control for pBTK was calculated. For cytokine test, cells were stimulated with C48/80 (10 μg/mL) or SP (30 μM) for four hours at 37° C. Supernatant was collected and cytokine levels were measured using the BD Cytometric Bead Array (CBA) human soluble protein master buffer kit (Becton Dickinson) and BD CBA human soluble protein flex sets for IL-8, MCP-1, GM-CSF and IL-13 (Becton Dickinson). Cytokine levels were measured and normalized to percent of control, with 0% representing the level of the unstimulated control.
# mast cells = experiment: Degranulation of mast cells grown from CD34+ blood cells of ISM patients (FIG. 22); type: cell-based; settings: absence of SCF at the time of stimulation
smiles,measurement,setting,value
"C=CC(=O)N1CCC(F)(CNc2ncnc(N)c2-c2ccc(Oc3ccccc3)cc2)CC1 [Compound 128, 1-(4-(((6-amino-5-(4-phenoxyphenyl)pyrimidin-4-yl)amino)methyl)-4-fluoropiperidin-1-yl)prop-2-en-1-one]","effect on basophil activation (CD63+, CD203c+)",basophils [1],fully inhibits basophil activation
same,inhibition of basophil activation,"basophils [2]; ISM patients, 100 mg or 150 mg BID",effective in inhibiting basophil activation
same,"percent inhibition of CD63 activation of basophils, dose dependence","basophils [2]; ISM patients, 50, 75, 100 or 150 mg BID",greater inhibition of basophil activation is achieved in ISM patients with greater dosing
same,IgE-mediated IL-4 production,IL-4,potently inhibited
same,MRGPRX2-mediated cytokine production,[3]; 0.1 μM,partially inhibited
same,MRGPRX2-mediated cytokine production,[3]; 0.5 and 1 μM,inhibition of cytokine production was increased
same,C48/80-mediated cytokine production,[3]; C48/80 (10 μg/mL) stimulation,partial inhibition
same,MRGPRX2-mediated cytokine production in ISM-like mast cells (figure legend),[3]; FIGS. 15A-C,inhibits
same,SP-mediated cytokine production,[3]; Substance P (30 μM) stimulation,fully inhibited
same,degranulation of ISM patient-derived mast cells,mast cells,inhibited
